Data from patent US7462600B2, “Macrolides” (Pfizer Inc, priority 2004, dated 2008).
Values after ≈ are worked out from the molar mass of the structure shown. Where two headings read alike, the source gives them in different places.

Legend:
Assay type in all cases: cell-based
[1] = system: Streptococcus pyogenes 1079; assay: MIC, microtiter broth dilution (NCCLS M100-S14), S. pyogenes 1079 (ermB)
Summary of the method: (§1)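 Stock solutions of 40 mg/ml in DMSO were used. MIC values came from microtiter-tray broth dilution following NCCLS M100-S14 guidelines.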

[2] = system: Streptococcus pneumoniae 1016; assay: MIC, microtiter broth dilution (NCCLS M100-S14), S. pneumoniae 1016 (susceptible)
Summary of the method: as §1

[3] = system: Streptococcus pneumoniae 1095; settings: microtiter broth dilution
Summary of the method: as §1

[4] = system: Streptococcus pneumoniae 1175; settings: microtiter broth dilution
Summary of the method: as §1

[5] = system: Haemophilus influenzae 1218; assay: MIC, microtiter broth dilution (NCCLS M100-S14), H. influenzae 1218 (susceptible)
Summary of the method: as §1

[6] = S. pneumoniae 1016 (susceptible)
[7] = H. influenzae 1218 (susceptible)

SMILES | MIC S. pyogenes 1079 ([1]; S. pyogenes 1079 (ermB)) [µg/mL] | MIC S. pneumo. 1016 [2, 6] [µg/mL] | MIC S. pneumo. 1095 ([3]; S. pneumoniae 1095 (ermB)) [µg/mL] | MIC S. pneumo. 1175 ([4]; S. pneumoniae 1175 (mefA)) [µg/mL] | MIC H. influenzae 1218 [5, 7] [µg/mL] | MIC S. pyogenes 1079 ([1]; Streptococcus pyogenes 1079) [µg/mL] | MIC S. pneumo. 1016 ([2]; Streptococcus pneumoniae 1016) [µg/mL] | MIC S. pneumo. 1095 ([3]; Streptococcus pneumoniae 1095) [µg/mL] | MIC S. pneumo. 1175 ([4]; Streptococcus pneumoniae 1175) [µg/mL] | MIC H. influenzae 1218 ([5]; Haemophilus influenzae 1218) [µg/mL]
CCC1OC(=O)C(C)C(=O)C(C)C(OC2OC(C)CC(N(C)C)C2O)C(C)(OC)CC(C)C(=O)C(C)C2N(CC3CCCN3Cc3cccc4cccnc34)C(=O)OC12C (stereo not shown) [10.05] | >64.00 | <0.06 | <0.06 | 0.12 (≈ 0.143 µM) | 4 (≈ 4.78 µM) | – | – | – | – | –
CCC1OC(=O)C(C)C(=O)C(C)C(OC2OC(C)CC(N(C)C)C2O)C(C)(OC)CC(C)C(=O)C(C)C2N(C3CN(S(=O)(=O)c4ccc(-c5nncs5)cc4)C3)C(=O)OC12C (stereo not shown) [Example 3.76, 3-descladinosyl-11,12-dideoxy-6-O-methyl-3-oxo-12,11-(oxycarbonyl-(1-(4-(1,3,4-thiadiazol-2-yl)benzenesulfonyl)-azetidin-3-yl)-imino)-erythromycin A] | – | – | – | – | – | 0.12 (≈ 0.135 µM) | <0.06 | <0.06 | <0.06 | 0.5 (≈ 0.56 µM)
CCC1OC(=O)C(C)C(=O)C(C)C(OC2OC(C)CC(N(C)C)C2O)C(C)(OC)CC(C)C(=O)C(C)C2N(C3CN(S(=O)(=O)c4ccc(-n5cccn5)nc4)C3)C(=O)OC12C (stereo not shown) [Example 3.16, 3-descladinosyl-11,12-dideoxy-6-O-methyl-3-oxo-12,11-(oxycarbonyl-(1-(6-(1H-pyrazol-1-yl)pyridine-3-sulfonyl)-azetidin-3-yl)-imino)-erythromycin A] | – | – | – | – | – | 1 (≈ 1.14 µM) | <0.06 | <0.06 | <0.06 | 0.5 (≈ 0.571 µM)
CCC1OC(=O)C(C)C(=O)C(C)C(OC2OC(C)CC(N(C)C)C2O)C(C)(OC)CC(C)C(=O)C(C)C2N(C3CN(S(=O)(=O)c4cnn(-c5ccccn5)c4)C3)C(=O)OC12C (stereo not shown) [Example 3.21, 1-(pyridin-2-yl)-1H-pyrazole-4-sulfonyl] | – | – | – | – | – | >64.00 | <0.06 | <0.06 | <0.06 | 1 (≈ 1.14 µM)
CCC1OC(=O)C(C)C(=O)C(C)C(OC2OC(C)CC(N(C)C)C2O)C(C)(OC)CC(C)C(=O)C(C)C2N(C3CN(S(=O)(=O)c4ccc(NC(C)=O)cc4)C3)C(=O)OC12C (stereo not shown) [Example 3.108, 3-descladinosyl-11,12-dideoxy-6-O-methyl-3-oxo-12,11-(oxycarbonyl-(1-(4-acetamidobenzene-1-sulfonyl)-azetidin-3-yl)-imino)-erythromycin A] | – | – | – | – | – | 0.25 (≈ 0.289 µM) | <0.063 | <0.063 | 0.5 (≈ 0.578 µM) | 1 (≈ 1.16 µM)
CCC1OC(=O)C(C)C(=O)C(C)C(OC2OC(C)CC(N(C)C)C2O)C(C)(OC)CC(C)C(=O)C(C)C2N(C3CN(S(=O)(=O)c4cncc(-n5cccn5)c4)C3)C(=O)OC12C (stereo not shown) [Example 3.80, 3-descladinosyl-11,12-dideoxy-6-O-methyl-3-oxo-12,11-(oxycarbonyl-(1-(5-(1H-pyrazol-1-yl)pyridine-3-sulfonyl)-azetidin-3-yl)-imino)erythromycin A] | – | – | – | – | – | 4 (≈ 4.57 µM) | <0.06 | <0.06 | <0.06 | >64.00
CCC1OC(=O)C(C)C(=O)C(C)C(OC2OC(C)CC(N(C)C)C2O)C(C)(OC)CC(C)C(=O)C(C)C2N(C3CN(S(=O)(=O)c4cccc(-c5cc(C)no5)c4)C3)C(=O)OC12C (stereo not shown) [Example 3.40, 3-descladinosyl-11,12-dideoxy-6-O-methyl-3-oxo-12,11-(oxycarbonyl-1(-(3-(3-methylisoxazol-5-yl)benzenesulfonyl)-azetidin-3-yl)-imino)-erythromycin A] | – | – | – | – | – | 4 (≈ 4.5 µM) | <0.06 | <0.06 | <0.06 | 2 (≈ 2.25 µM)
CC[C@H]1OC(=O)[C@H](C)C(=O)[C@H](C)[C@@H](O[C@@H]2O[C@H](C)C[C@H](N(C)C)[C@H]2O)[C@](C)(OC)C[C@@H](C)C(=O)[C@H](C)[C@H]2N(CC3(C)CN(Cc4c[nH]c5ccc(F)cc45)C3)C(=O)O[C@]12C [6.08] | – | – | – | – | – | 16 (≈ 19 µM) | <0.06 | <0.06 | 0.25 (≈ 0.297 µM) | 0.5 (≈ 0.593 µM)
CCC1OC(=O)C(C)C(=O)C(C)C(OC2OC(C)CC(N(C)C)C2O)C(C)(OC)CC(C)C(=O)C(C)C2N(C3CN(S(=O)(=O)c4ccc5nn(C)cc5c4)C3)C(=O)OC12C (stereo not shown) [Example 3.96, 3-descladinosyl-11,12-dideoxy-6-O-methyl-3-oxo-12,11-(oxycarbonyl-(1-(2-methyl-2H-indazole-5-sulfonyl)-azetidin-3-yl)-imino)erythromycin A] | – | – | – | – | – | 1 (≈ 1.16 µM) | <0.06 | 0.12 (≈ 0.139 µM) | 2 (≈ 2.32 µM) | 1 (≈ 1.16 µM)
CCC1OC(=O)C(C)C(=O)C(C)C(OC2OC(C)CC(N(C)C)C2O)C(C)(OC)CC(C)C(=O)C(C)C2N(C3CN(C(=O)c4ccc(-n5ccnc5)cc4)C3)C(=O)OC12C (stereo not shown) [Example 2.14] | – | – | – | – | – | >64.00 | <0.06 | 2 (≈ 2.39 µM) | 0.25 (≈ 0.298 µM) | 4 (≈ 4.77 µM)
CC[C@H]1OC(=O)[C@H](C)C(=O)[C@H](C)[C@@H](O[C@@H]2O[C@H](C)C[C@H](N(C)C)[C@H]2O)[C@](C)(OC)C[C@@H](C)C(=O)[C@H](C)[C@H]2N(CC3(O)CN(C(=O)c4cccc5cccnc45)C3)C(=O)O[C@]12C [7.20] | >64.00 | <0.06 | 2 (≈ 2.34 µM) | 1 (≈ 1.17 µM) | 0.5 (≈ 0.586 µM) | – | – | – | – | –
CC[C@H]1OC(=O)[C@H](C)C(=O)[C@H](C)[C@@H](O[C@@H]2O[C@H](C)C[C@H](N(C)C)[C@H]2O)[C@](C)(OC)C[C@@H](C)C(=O)[C@H](C)[C@H]2N(CC3(O)CN(Cc4ccc5nccnc5c4)C3)C(=O)O[C@]12C [7.03] | >64.00 | <0.06 | 0.12 (≈ 0.143 µM) | 0.12 (≈ 0.143 µM) | 0.5 (≈ 0.595 µM) | – | – | – | – | –
CCC1OC(=O)C(C)C(=O)C(C)C(OC2OC(C)CC(N(C)C)C2O)C(C)(OC)CC(C)C(=O)C(C)C2N(CC3CCCN3C(=O)c3cnc4ccccc4n3)C(=O)OC12C.O=CO (stereo not shown) [10.21] | >64.00 | <0.06 | <0.06 | 0.12 | 2 | – | – | – | – | –
CCC1OC(=O)C(C)C(=O)C(C)C(OC2OC(C)CC(N(C)C)C2O)C(C)(OC)CC(C)C(=O)C(C)C2N(CC3CCCN3C(=O)c3cc4ccccc4cn3)C(=O)OC12C (stereo not shown) [12.09] | >64.00 | <0.06 | 1 (≈ 1.18 µM) | 1 (≈ 1.18 µM) | 2 (≈ 2.35 µM) | – | – | – | – | –
CCC1OC(=O)C(C)C(=O)C(C)C(OC2OC(C)CC(N(C)C)C2O)C(C)(OC)CC(C)C(=O)C(C)C2N(C3CN(Cc4cccc5ccccc45)C3)C(=O)OC12C (stereo not shown) [Example 1.91, 3-descladinosyl-11,12-dideoxy-6-O-methyl-3-oxo-12,11-(oxycarbonyl-(1-(naphthalene-1-methyl)-azetidin-3-yl)-imino)-erythromycin A] | – | – | – | – | – | 8 (≈ 9.9 µM) | <0.063 | 0.125 (≈ 0.155 µM) | <0.063 | 1 (≈ 1.24 µM)
CCC1OC(=O)C(C)C(=O)C(C)C(OC2OC(C)CC(N(C)C)C2O)C(C)(OC)CC(C)C(=O)C(C)C2N(CC3CCN(C(=O)c4cc5cccnc5[nH]4)C3)C(=O)OC12C (stereo not shown) [13.15] | >64.00 | <0.06 | 2 (≈ 2.38 µM) | 0.12 (≈ 0.143 µM) | 4 (≈ 4.76 µM) | – | – | – | – | –
CCC1OC(=O)C(C)C(=O)C(C)C(OC2OC(C)CC(N(C)C)C2O)C(C)(OC)CC(C)C(=O)C(C)C2N(C3CN(S(=O)(=O)c4cccc(-c5cccnn5)c4)C3)C(=O)OC12C (stereo not shown) [Example 3.72, 3-descladinosyl-11,12-dideoxy-4-O-methyl-3-oxo-12,11-(oxycarbonyl-(1-(3-(pyridazin-3-yl)benzenesulfonyl)-azetidin-3-yl)-imino)erythromycin A] | – | – | – | – | – | 1 (≈ 1.13 µM) | <0.06 | <0.06 | <0.06 | 1 (≈ 1.13 µM)
